# Test system: dsRNA/DNA-specific antibodies
# Experiment: Blocking test of dsRNA/DNA antibody immunofluorescence staining with poly(A)-poly(dT)
# Assay type: binding
# Settings: 10 micrograms/milliliter Poly(A)-Poly(dT) mixed with antibody (1/20 final), incubated 10-15 minutes at room temperature
# Description: The specificity of staining by antibodies was checked for by the blocking test with poly(A)-poly(dT), which was performed as follows:
# Equal volumes of Poly(A)-Poly(dT) (20 ug/ml) and antibody (1/10) were mixed to give final concentrations of 10 ug/ml A.dT and 1/20 of serum (antibody). For controls, PBS was used in place of Poly(A)-Poly(dT). Samples were incubated for 10-15 minutes at room temperature.
# Samples were then tested at final concentrations of 10, 2.0, 0.5 and 0.08 micrograms/ml, in each case incubating equal volumes of polynucleotide and antibody that are twice the final concentration, as above.
substance,measurement,value
Poly(A)-Poly(dT),staining with dsRNA/DNA-specific antibodies after addition of blocker,completely blocked
